{"source": "paper PMC6576746", "about": "“Rational discovery of dual-indication multi-target PDE/Kinase inhibitor for precision anti-cancer therapy using structural systems pharmacology” (PLoS Computational Biology, 2019)", "experiment_in_all_cases": "biochemical", "parameters_in_all_cases": "DiscoverX KinomeScan competition binding assay across human kinases; per cent of control at 10 and 100 uM", "key": {"[1]": {"target": "T1, ABL1(F317L)-phosphorylated (Homo sapiens, UniProt P00519, F317L)", "T1 construct": "phosphorylated", "conditions": "competition binding, % of control; read-out: Percent Control (100 uM Levosimendan)", "outline": "(§1)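 KinomeScan competition binding was run across a human kinase panel at 10 μM and 100 μM levosimendan. Results are %control = (test − positive control)/(negative control − positive control) × 100.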"}, "CSF1R-autoinhibited": {"target": "CSF1R-autoinhibited (Homo sapiens, UniProt P07333)", "conditions": "competition binding, % of control; read-out: Percent Control (100 uM Levosimendan)", "outline": "as §1"}, "CSNK1A1": {"target": "CSNK1A1 (Homo sapiens, UniProt P48729)", "sequence (P48729 whole entry)": "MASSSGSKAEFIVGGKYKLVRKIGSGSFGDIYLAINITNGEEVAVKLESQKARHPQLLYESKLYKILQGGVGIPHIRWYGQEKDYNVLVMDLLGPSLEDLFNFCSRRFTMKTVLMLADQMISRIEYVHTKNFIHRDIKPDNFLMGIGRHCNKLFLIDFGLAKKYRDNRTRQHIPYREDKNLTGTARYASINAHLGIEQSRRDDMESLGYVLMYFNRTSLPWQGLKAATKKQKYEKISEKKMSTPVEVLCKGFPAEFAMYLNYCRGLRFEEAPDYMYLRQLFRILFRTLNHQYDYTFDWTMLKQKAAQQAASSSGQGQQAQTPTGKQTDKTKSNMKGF", "conditions": "competition binding, % of control", "outline": "as §1"}, "ERK5": {"target": "T2, ERK5 (Homo sapiens, UniProt Q13164)", "T2 construct": "gene MAPK7", "conditions": "competition binding, % of control; read-out: Percent Control (100 uM Levosimendan)", "outline": "as §1"}, "ERK8": {"target": "T3, ERK8 (Homo sapiens, UniProt Q8TD08)", "T3 construct": "gene MAPK15", "conditions": "competition binding, % of control; read-out: Percent Control (100 uM Levosimendan)", "outline": "as §1"}, "FGFR4": {"target": "FGFR4 (Homo sapiens, UniProt P22455)", "conditions": "competition binding, % of control; read-out: Percent Control (100 uM Levosimendan)", "outline": "as §1"}, "FGR": {"target": "FGR (Homo sapiens, UniProt P09769)", "sequence (P09769 whole entry)": "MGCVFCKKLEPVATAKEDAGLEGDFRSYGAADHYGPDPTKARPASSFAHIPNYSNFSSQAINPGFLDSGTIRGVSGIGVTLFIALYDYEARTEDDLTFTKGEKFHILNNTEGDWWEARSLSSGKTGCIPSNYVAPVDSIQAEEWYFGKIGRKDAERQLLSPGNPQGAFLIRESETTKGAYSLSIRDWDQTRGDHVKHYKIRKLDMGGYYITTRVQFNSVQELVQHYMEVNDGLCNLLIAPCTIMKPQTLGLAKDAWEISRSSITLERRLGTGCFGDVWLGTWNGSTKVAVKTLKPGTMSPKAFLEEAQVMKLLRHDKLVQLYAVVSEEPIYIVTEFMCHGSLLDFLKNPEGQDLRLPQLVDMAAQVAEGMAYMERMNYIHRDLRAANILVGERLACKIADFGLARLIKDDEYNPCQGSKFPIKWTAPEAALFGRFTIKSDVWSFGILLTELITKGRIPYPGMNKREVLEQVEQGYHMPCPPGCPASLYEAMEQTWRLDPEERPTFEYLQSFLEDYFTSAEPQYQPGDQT", "conditions": "competition binding, % of control", "outline": "as §1"}, "MEK4": {"target": "T4, MEK4 (Homo sapiens, UniProt P45985)", "T4 construct": "gene MAP2K4", "conditions": "competition binding, % of control; read-out: Percent Control (100 uM Levosimendan)", "outline": "as §1"}, "MERTK": {"target": "MERTK (Homo sapiens, UniProt Q12866)", "sequence (Q12866 whole entry)": "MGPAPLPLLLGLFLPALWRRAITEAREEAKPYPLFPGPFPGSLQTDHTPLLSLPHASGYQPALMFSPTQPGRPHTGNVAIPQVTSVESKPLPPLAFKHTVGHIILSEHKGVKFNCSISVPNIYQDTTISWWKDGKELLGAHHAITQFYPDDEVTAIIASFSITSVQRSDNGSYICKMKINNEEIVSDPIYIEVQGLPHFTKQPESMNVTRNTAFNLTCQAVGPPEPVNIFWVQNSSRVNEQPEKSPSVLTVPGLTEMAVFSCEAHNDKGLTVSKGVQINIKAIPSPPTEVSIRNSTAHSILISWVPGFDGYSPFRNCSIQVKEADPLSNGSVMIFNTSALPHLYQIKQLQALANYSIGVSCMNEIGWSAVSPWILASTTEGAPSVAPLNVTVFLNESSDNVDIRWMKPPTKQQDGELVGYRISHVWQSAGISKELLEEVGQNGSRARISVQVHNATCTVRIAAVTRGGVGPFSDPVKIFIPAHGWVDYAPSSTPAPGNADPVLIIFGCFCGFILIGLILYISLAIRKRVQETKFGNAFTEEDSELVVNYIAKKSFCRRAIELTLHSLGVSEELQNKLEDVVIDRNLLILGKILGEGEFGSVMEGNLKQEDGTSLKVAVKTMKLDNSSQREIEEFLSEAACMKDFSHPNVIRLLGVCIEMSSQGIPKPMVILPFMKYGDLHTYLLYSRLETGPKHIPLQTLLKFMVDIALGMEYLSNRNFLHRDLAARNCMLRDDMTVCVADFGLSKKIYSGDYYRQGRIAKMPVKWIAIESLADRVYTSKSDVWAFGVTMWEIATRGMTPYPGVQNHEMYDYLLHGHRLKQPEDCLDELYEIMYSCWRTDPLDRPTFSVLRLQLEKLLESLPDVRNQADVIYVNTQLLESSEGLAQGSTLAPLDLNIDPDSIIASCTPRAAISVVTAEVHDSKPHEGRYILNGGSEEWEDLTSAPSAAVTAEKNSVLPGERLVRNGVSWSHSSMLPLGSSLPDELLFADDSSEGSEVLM", "conditions": "competition binding, % of control; read-out: Percent Control (100 uM Levosimendan)", "outline": "as §1"}, "NEK2": {"target": "NEK2 (Homo sapiens, UniProt P51955)", "sequence (P51955 whole entry)": "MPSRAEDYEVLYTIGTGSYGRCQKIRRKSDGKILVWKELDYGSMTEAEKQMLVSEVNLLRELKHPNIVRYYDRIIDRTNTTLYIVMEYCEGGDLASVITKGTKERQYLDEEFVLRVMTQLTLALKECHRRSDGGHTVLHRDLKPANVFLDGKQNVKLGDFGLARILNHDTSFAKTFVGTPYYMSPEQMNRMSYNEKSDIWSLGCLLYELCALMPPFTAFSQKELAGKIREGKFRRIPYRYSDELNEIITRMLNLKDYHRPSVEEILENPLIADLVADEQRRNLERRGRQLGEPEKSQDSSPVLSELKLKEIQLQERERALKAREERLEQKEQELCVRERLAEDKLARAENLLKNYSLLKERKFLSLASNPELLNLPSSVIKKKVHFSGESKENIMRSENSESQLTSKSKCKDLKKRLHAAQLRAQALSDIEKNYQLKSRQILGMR", "conditions": "competition binding, % of control; read-out: Percent Control (100 uM Levosimendan)", "outline": "as §1"}, "PDGFRB": {"target": "PDGFRB (Homo sapiens, UniProt P09619)", "sequence (P09619 whole entry)": "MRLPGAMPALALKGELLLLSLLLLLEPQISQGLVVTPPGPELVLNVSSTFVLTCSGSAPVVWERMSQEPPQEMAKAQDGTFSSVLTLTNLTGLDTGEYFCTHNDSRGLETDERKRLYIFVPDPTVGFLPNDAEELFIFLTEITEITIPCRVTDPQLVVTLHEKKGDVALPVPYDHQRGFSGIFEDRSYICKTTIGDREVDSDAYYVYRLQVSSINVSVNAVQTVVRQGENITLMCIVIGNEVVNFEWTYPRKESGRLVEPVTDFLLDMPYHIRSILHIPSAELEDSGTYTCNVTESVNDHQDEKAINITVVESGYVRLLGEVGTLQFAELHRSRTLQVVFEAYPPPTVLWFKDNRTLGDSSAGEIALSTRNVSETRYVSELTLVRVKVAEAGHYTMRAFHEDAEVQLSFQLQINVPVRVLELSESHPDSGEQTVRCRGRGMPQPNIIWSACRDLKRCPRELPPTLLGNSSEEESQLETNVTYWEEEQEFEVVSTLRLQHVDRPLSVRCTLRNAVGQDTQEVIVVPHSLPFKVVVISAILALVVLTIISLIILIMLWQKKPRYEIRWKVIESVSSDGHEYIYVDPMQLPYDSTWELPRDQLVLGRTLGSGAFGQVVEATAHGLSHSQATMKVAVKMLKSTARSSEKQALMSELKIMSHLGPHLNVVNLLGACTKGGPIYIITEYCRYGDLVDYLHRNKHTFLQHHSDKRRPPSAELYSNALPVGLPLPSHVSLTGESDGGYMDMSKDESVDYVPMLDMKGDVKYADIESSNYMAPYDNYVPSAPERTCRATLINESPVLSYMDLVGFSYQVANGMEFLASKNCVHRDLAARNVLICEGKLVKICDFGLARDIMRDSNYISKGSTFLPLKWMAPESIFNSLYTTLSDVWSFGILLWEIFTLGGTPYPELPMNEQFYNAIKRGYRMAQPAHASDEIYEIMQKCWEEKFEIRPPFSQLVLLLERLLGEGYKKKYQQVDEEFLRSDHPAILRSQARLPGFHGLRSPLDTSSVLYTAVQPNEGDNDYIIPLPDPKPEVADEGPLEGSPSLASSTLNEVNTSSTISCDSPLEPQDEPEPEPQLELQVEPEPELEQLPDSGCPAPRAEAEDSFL", "conditions": "competition binding, % of control", "outline": "as §1"}, "PIK3CA(C420R)": {"target": "PIK3CA(C420R) (Homo sapiens, UniProt P42336, C420R)", "conditions": "competition binding, % of control; read-out: Percent Control (100 uM Levosimendan)", "outline": "as §1"}, "PIK3CA(M1043I)": {"target": "PIK3CA(M1043I) (Homo sapiens, UniProt P42336, M1043I)", "conditions": "competition binding, % of control; read-out: Percent Control (100 uM Levosimendan)", "outline": "as §1"}, "RET(V804L)": {"target": "RET(V804L) (Homo sapiens, UniProt P07949, V804L)", "sequence (P07949 whole entry V804L)": "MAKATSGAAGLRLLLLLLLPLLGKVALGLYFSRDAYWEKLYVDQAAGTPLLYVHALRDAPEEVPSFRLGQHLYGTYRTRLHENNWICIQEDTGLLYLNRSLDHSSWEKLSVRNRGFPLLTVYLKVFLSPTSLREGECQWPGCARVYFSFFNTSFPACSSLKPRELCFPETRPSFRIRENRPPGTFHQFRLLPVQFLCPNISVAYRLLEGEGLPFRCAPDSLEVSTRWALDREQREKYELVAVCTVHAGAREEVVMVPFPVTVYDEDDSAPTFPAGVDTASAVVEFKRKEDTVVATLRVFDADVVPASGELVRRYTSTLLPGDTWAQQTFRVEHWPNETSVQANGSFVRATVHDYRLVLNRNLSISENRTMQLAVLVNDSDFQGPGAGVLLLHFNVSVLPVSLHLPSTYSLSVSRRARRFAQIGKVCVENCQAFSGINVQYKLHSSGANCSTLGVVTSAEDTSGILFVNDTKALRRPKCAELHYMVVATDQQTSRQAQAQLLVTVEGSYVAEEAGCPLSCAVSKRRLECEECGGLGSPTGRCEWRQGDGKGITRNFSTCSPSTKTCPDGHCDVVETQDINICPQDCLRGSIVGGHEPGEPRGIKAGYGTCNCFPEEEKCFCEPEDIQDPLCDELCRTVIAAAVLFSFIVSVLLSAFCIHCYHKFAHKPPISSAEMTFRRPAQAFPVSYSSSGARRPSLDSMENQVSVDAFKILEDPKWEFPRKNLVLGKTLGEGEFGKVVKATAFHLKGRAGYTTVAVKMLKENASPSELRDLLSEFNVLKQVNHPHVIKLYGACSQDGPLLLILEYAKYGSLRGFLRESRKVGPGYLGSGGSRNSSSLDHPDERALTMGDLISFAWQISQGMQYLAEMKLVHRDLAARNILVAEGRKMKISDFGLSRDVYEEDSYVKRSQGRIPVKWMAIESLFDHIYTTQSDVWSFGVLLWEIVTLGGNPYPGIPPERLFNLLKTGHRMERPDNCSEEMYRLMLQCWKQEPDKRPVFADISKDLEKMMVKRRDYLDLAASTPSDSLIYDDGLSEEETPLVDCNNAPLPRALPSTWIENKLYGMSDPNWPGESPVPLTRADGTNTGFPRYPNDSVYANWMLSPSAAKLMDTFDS", "conditions": "competition binding, % of control; read-out: Percent Control (100 uM Levosimendan)", "outline": "as §1"}, "[2]": {"target": "T5, RSK3(Kin.Dom.1-N-terminal) (Homo sapiens, UniProt Q15349)", "T5 construct": "gene RPS6KA2; Kin.Dom.1-N-terminal", "conditions": "competition binding, % of control; read-out: Percent Control (100 uM Levosimendan)", "outline": "as §1"}, "SGK3": {"target": "SGK3 (Homo sapiens, UniProt Q96BR1)", "conditions": "competition binding, % of control; read-out: Percent Control (100 uM Levosimendan)", "outline": "as §1"}, "SRC": {"target": "SRC (Homo sapiens, UniProt P12931)", "sequence (P12931 whole entry)": "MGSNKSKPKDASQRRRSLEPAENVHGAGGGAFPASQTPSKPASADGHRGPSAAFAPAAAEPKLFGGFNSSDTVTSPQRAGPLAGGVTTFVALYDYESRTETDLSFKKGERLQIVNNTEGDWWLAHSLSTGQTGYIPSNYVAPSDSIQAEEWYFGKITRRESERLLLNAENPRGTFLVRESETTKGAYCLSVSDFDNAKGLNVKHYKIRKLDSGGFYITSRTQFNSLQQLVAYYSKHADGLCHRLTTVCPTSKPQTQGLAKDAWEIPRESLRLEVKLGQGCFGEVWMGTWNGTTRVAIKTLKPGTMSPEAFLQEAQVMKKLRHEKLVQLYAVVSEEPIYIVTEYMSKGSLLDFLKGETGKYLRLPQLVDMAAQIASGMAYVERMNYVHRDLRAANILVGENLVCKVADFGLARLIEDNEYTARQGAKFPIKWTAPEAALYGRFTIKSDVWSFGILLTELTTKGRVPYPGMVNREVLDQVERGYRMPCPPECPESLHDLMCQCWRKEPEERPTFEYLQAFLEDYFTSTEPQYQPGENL", "conditions": "competition binding, % of control", "outline": "as §1"}, "TNK2": {"target": "TNK2 (Homo sapiens, UniProt Q07912)", "conditions": "competition binding, % of control; read-out: Percent Control (100 uM Levosimendan)", "outline": "as §1"}, "[3]": {"conditions": "read-out: Percent Control (10 uM Levosimendan)"}, "[4]": {"conditions": "read-out: Percent Control (100 uM Levosimendan)"}}, "data": [{"smiles": "C[C@@H]1CC(=O)NN=C1c1ccc(NN=C(C#N)C#N)cc1", "note": "[levosimendan]", "values": [{"measurement": "remaining binding at 100 µM", "setting": "[1]", "value": 59, "unit": "%"}, {"measurement": "remaining binding at 100 µM", "setting": "CSF1R-autoinhibited", "value": 85, "unit": "%"}, {"measurement": "remaining binding at 10 µM", "setting": "CSNK1A1; [3]", "value": 98, "unit": "%"}, {"measurement": "remaining binding at 100 µM", "setting": "CSNK1A1; [4]", "value": 42, "unit": "%"}, {"measurement": "remaining binding at 100 µM", "setting": "ERK5", "value": 100, "unit": "%"}, {"measurement": "remaining binding at 100 µM", "setting": "ERK8", "value": 100, "unit": "%"}, {"measurement": "remaining binding at 100 µM", "setting": "FGFR4", "value": 92, "unit": "%"}, {"measurement": "remaining binding at 10 µM", "setting": "FGR; [3]", "value": 100, "unit": "%"}, {"measurement": "remaining binding at 100 µM", "setting": "FGR; [4]", "value": 49, "unit": "%"}, {"measurement": "remaining binding at 100 µM", "setting": "MEK4", "value": 92, "unit": "%"}, {"measurement": "remaining binding at 100 µM", "setting": "MERTK", "value": 70, "unit": "%"}, {"measurement": "remaining binding at 100 µM", "setting": "NEK2", "value": 96, "unit": "%"}, {"measurement": "remaining binding at 10 µM", "setting": "PDGFRB; [3]", "value": 58, "unit": "%"}, {"measurement": "remaining binding at 100 µM", "setting": "PDGFRB; [4]", "value": 12, "unit": "%"}, {"measurement": "remaining binding at 100 µM", "setting": "PIK3CA(C420R)", "value": 100, "unit": "%"}, {"measurement": "remaining binding at 100 µM", "setting": "PIK3CA(M1043I)", "value": 100, "unit": "%"}, {"measurement": "remaining binding at 100 µM", "setting": "RET(V804L)", "value": 92, "unit": "%"}, {"measurement": "remaining binding at 100 µM", "setting": "[2]", "value": 100, "unit": "%"}, {"measurement": "remaining binding at 100 µM", "setting": "SGK3", "value": 92, "unit": "%"}, {"measurement": "remaining binding at 10 µM", "setting": "SRC; [3]", "value": 100, "unit": "%"}, {"measurement": "remaining binding at 100 µM", "setting": "SRC; [4]", "value": 42, "unit": "%"}, {"measurement": "remaining binding at 100 µM", "setting": "TNK2", "value": 86, "unit": "%"}]}]}
